Reference: patent US6518278B1, “Carcinostatic substance for compatible administration, process of administrating same and process of rapidly inspecting same” (Debio Pharm S.A., priority 1994, dated 2003)
Entries after “also recorded” stand apart in the source; their conditions may differ.

Legend:
Type in all cases: cell-based
[1] = tested on: living cells; test: Fluorescence dye bonded to living cells: does the cell stay alive
Excerpt: As the said fluorescence dye, the above DAPI can be employed. Although the DAPI itself is known, the use for the observation of the cell division while keeping the cells alive is unknown. The present inventors have investigated such fluorescence dye as Hoechst 33258, acridine orange and acridine yellow other than the DAPI.

[2] = tested on: human leutecyte strain cells (RPMI-8402); test: Rapid inspection of carcinostatic substances by counting divided cells with DAPI; settings: for number of the divided cells compared with the control (FIG. 15): 0.05 μg/ml VCR, 0.05 μg/ml VDS, 20 μg/ml MST-16, with 1 μg/ml DAPI; for division phases of the divided cells (microscope observation): ratio of the divided cells increased after the initiation of the cultivation, no anaphase or telophase cells observed
Description: After over a certain number of cancer cells are prepared by cultivation, a carcinostatic substance is added to the cancer cells. The number of the cells under the cell division at the respective measuring times is counted while continuing the cultivation. […] Accordingly, the effectiveness of the carcinostatic substance can be inspected by counting the number of the cells under the cell division among a certain number (for example, one thousand) of cells several times, comparing the said number with that of the former counting or the previous counting thereof and grasping the progress of the cell division by means of the increase or the decrease of the above comparison. If the DAPI is added with the carcinostatic substance during this procedure, the accurate counting of the number of the divided cells can be performed because the cells under the any phase of the cell division can be recognized. When the number of the divided cells decreases as a result of the comparison between the measurement values, it is judged that the multiplication of the cancer cells is depressed, or the function of the carcinostatic substance is performed. When, on the other hand, the number of the divided cells increases compared with the control, a certain function of the carcinostatic substance is judged to be performed. […] To the respective cultivation liquids were added, together with 1 μg/ml of the DAPI, (1) the control (no addition of the carcinostatic substance), (2) 5 μg/ml of CPT (camptotecin), (3) 10 μg/ml of CPT-11 ([…]), (4) 0.06 μg/ml of ADR (adriamycin), (5) 0.05 μg/ml of DNR (daunomycin), (6) 1 μ/ml of etoposide, (7) 20 μg/ml of MST-16 (sopsoxane), (8) 1 μg/ml of […]), (9) μg/ml of Act-D (actinomycin D), (10) 0.1 μg/ml of mitoxantrone. (11) 20 μg/ml of 5-FU, (12) 10 μg/ml of Ara-C (cytosinarabinoside) (13) 50 μg/ml of hydroxyurea, (14) 2 μg/ml of Aphidicolin, (15) 10 μg/ml of MTX (mesotroxate), (16) 0.05 μg/ml of VCR (vincristin), (17) 0.05 μg/ml of […]). (5) μg/ml of cisplatin, (18) 10 μg/ml of bleomycin, (20)10 μg/ml of MMC (mitomycin C) and (21) 5 μg/ml of cyclophospamide (endoxane). The samples were sampled from the respective cultivation liquids after one hour, […], 24 hours and then every 24 hour from the initiation of the cultivation. The samples were evaluated in accordance with the procedures of the preceding Examples. The results are shown in a graph of FIG. 15.

[3] = tested on: human leutecyte strain cell (RPMI-8402); test: Extinction effect of compatible administration of l-OHP and a compatible agent on tumor cells (compatible efficiency OE); settings: for Compatible Effects of l-OHP and Compatible Agent, Simultaneous Administration: both added day 1
Description: In the evaluation of the extinction effect of the tumor cells of the respective combinations, a pure extinction effect produced by the compatible administration of the compatible agent and the l-OHP is calculated by subtracting an extinction effect of a control (no carcinostatic substance is employed).
The compatibly administration effect is calculated by employing an Equation (1) described later. When the value (%) calculated by this Equation is between 85 and 115%, the compatible administration effect is evaluated to be an additive effect. When the value is below 85%, it is evaluated to be below the additive effect. When the value is over 115%, it is evaluated to be a synergistic effect, ±15% is a reliability limit or a measurement error.
A target tumor cell was a human leutecyte strain cell (RPMI-8402 of Gibuko K.K.). To these cells was added blood serum of a cow embryo (15%, Gibuko K.K.) to prepare a cell floating liquid of which the number of the cells was 10^6/ml in a cultivation bottle (tradename; Sumiron of Sumitomo Bakelite o., Ltd.) having a volume of 6 ml. A plenty of the cultivation bottles having the cell floating liquid therein were prepared, and the following experiments were conducted while selecting one kind of a compatible agent among cisplatin, 5-FU, irinotecane, adriamycin, etoposide, mitomycin, mitoxantrone, bleomycin, vincristin and vindecin. The time schedules of the controls (no addition of medicines, addition of only the l-OHP and addition of only a compatible agent, and specified in the below items (1) to (4)) and of the compatible administration of the compatible agent and the l-OHP are shown in FIG. 10.
(1) No medicine was added (control).
(2) Only the l-OHP was added at a second day.
(3) A large amount of compatible agents were added at a first day ([…] of the cisplatin, 10 μg/ml of the 5-FU, 0.05 μg/ml of the adriamycin and 1 μg/ml of the etoposide, and for the comparison purpose, 0.05 μg/ml of the vincristin and 0.06 μg/ml of the vindecin). The adding amount of the irinotecano was fixed to 10 μg/ml, and the addition amount of the l-OHP was 5 μg/ml.
(4) A small amount of compatible agents were added at a first day (0.5 μg/ml of the cisplatin, 5 μg/ml of the 5-FU, 0.01 μg/ml of the adriamycin and 0.5 μg/ml of the etoposide, and for the comparison purpose, 0.01 μg/ml of the vincristin and 0.01 μg/ml of the vindecin). The adding amount of the irinotecane was fixed to 10 μg/ml, and the addition amount of the l-OHP was 1 μg/ml.
(5) The l-OHP and a large amount (the same as that of the above item (3) and so forth in the following items) of the compatible agents were simultaneously added at a first day.
(6) The l-OHP and a small amount (the same as that of the above item (4) and so forth in the following items) of the compatible agents were simultaneously added at a first day.
(7) The l-OHP was added at a first day and a large amount of the compatible agents were added at a second day.
(8) The l-OHP was added at a first day and a small amount of the compatible agents were added at a second day.
(9) The l-OHP was added at a first day and a large amount of the compatible agents were added at a third day.
(10) The l-OHP was added at a first day and a small amount of the compatible agents were added at a third day.
(11) The l-OHP was added at a first day and a large amount of the compatible agents were added at a fourth day.
(12) The l-OHP was added at a first day and a small amount of the compatible agents were added at a fourth day.
(13) A large amount of the compatible agents were added at a first day and the l-OHP was added at a second day.
(14) A small amount of the compatible agents were added at a first day and the l-OHP was added at a second day.
(15) A large amount of the compatible agents were added at a first day and the l-OHP was added at a third day.
(16) A small amount of the compatible agents were added at a first day and the l-OHP was added at a third day.

[4] = larger dosage of compatible agent (μg/ml: cisplatin 1, 5-FU 10, irinotecane 10, adriamycin 0.05, vincristin 0.05, vindecin 0.05, etoposide 1, bleomycin 10, mitoxantrone 0.1, mitomycine 1), l-OHP 1 μg/ml (5 μg/ml with irinotecane) added day 1
[5] = larger dosage of compatible agent (μg/ml: cisplatin 1, 5-FU 10, irinotecane 10, adriamycin 0.05, vincristin 0.05, vindecin 0.05, etoposide 1, bleomycin 10, mitoxantrone 0.1, mitomycine 1), l-OHP 1 μg/ml (5 μg/ml with irinotecane)
[6] = larger dosage of compatible agent added day 1 (μg/ml: cisplatin 1, 5-FU 10, irinotecane 10, adriamycin 0.05, vincristin 0.05, vindecin 0.05, etoposide 1, bleomycin 10, mitoxantrone 0.1, mitomycine 1), l-OHP 1 μg/ml (5 μg/ml with irinotecane)
[7] = smaller dosage of compatible agent (μg/ml: cisplatin 0.5, 5-FU 5, irinotecane 10, adriamycin 0.01, vincristin 0.01, vindecin 0.01, etoposide 0.5, bleomycin 1, mitoxantrone 0.05, mitomycine 0.5), l-OHP 1 μg/ml added day 1
[8] = smaller dosage of compatible agent (μg/ml: cisplatin 0.5, 5-FU 5, irinotecane 10, adriamycin 0.01, vincristin 0.01, vindecin 0.01, etoposide 0.5, bleomycin 1, mitoxantrone 0.05, mitomycine 0.5), l-OHP 1 μg/ml
[9] = smaller dosage of compatible agent added day 1 (μg/ml: cisplatin 0.5, 5-FU 5, irinotecane 10, adriamycin 0.01, vincristin 0.01, vindecin 0.01, etoposide 0.5, bleomycin 1, mitoxantrone 0.05, mitomycine 0.5), l-OHP 1 μg/ml

| Structure (SMILES) | toxicity of fluorescence dye to the cell [1] | number of the divided cells compared with the control (FIG. 15) [2] | division phases of the divided cells (microscope observation) [2] | compatible administration effect with l-OHP, summary in words [3] | Compatible Effects of l-OHP and Compatible Agent, Time Lag Administration, Addition Administration of Compatible Agent day 2 [3, 4] | Compatible Effects of l-OHP and Compatible Agent, Time Lag Administration, Addition Administration of Compatible Agent day 3 [3, 4] | Compatible Effects of l-OHP and Compatible Agent, Time Lag Administration, Addition Administration of Compatible Agent day 4 [3, 4] | Compatible Effects of l-OHP and Compatible Agent, Simultaneous Administration [3, 5] | Compatible Effects of l-OHP and Compatible Agent, Time Lag Administration, Addition Administration of l-OHP day 2 [3, 6] | Compatible Effects of l-OHP and Compatible Agent, Time Lag Administration, Addition Administration of l-OHP day 3 [3, 6] | Compatible Effects of l-OHP and Compatible Agent, Time Lag Administration, Addition Administration of l-OHP day 4 [3, 6] | Compatible Effects of l-OHP and Compatible Agent, Time Lag Administration, Addition Administration of Compatible Agent day 2 [3, 7] | Compatible Effects of l-OHP and Compatible Agent, Time Lag Administration, Addition Administration of Compatible Agent day 3 [3, 7] | Compatible Effects of l-OHP and Compatible Agent, Time Lag Administration, Addition Administration of Compatible Agent day 4 [3, 7] | Compatible Effects of l-OHP and Compatible Agent, Simultaneous Administration [3, 8] | Compatible Effects of l-OHP and Compatible Agent, Time Lag Administration, Addition Administration of l-OHP day 2 [3, 9] | Compatible Effects of l-OHP and Compatible Agent, Time Lag Administration, Addition Administration of l-OHP day 3 [3, 9] | Compatible Effects of l-OHP and Compatible Agent, Time Lag Administration, Addition Administration of l-OHP day 4 [3, 9] |
| --- | --- | --- | --- | --- | --- | --- | --- | --- | --- | --- | --- | --- | --- | --- | --- | --- | --- | --- |
| Cc1cc2cc3cc(C)c(N)cc3nc2cc1N [acridine yellow] | toxicity is too strong to keep the cell alive | – | – | – | – | – | – | – | – | – | – | – | – | – | – | – | – | – |
| CC(C)COC(=O)OCN1C(=O)CN(CCN2CC(=O)N(COC(=O)OCC(C)C)C(=O)C2)CC1=O [MST-16, sopsoxane] | – | increase of the number of the divided cells was momentarily observed | the division prophase and the division metaphase | – | – | – | – | – | – | – | – | – | – | – | – | – | – | – |
| CC[C@]1(O)C[C@H]2CN(CCc3c([nH]c4ccccc34)[C@@](C(=O)OC)(c3cc4c(cc3OC)N(C=O)[C@H]3[C@@](O)(C(=O)OC)[C@H](OC(C)=O)[C@]5(CC)C=CCN6CC[C@]43[C@@H]65)C2)C1 [vincristin] | – | remarkable increases of the numbers of the divided cells | the division prophase and the division metaphase | the additive effect at best; also recorded: no synergistic effects can be obtained in all the combinations and the additive effects can be obtained in most combinations | Δ (Δ: Below Additive Effect) | Δ (Δ: Below Additive Effect) | ◯ (◯: Additive Effect) | Δ (Δ: Below Additive Effect) | ◯ (◯: Additive Effect) | Δ (Δ: Below Additive Effect) | ◯ (◯: Additive Effect) | ◯ (◯: Additive Effect) | Δ (Δ: Below Additive Effect) | ◯ (◯: Additive Effect) | Δ (Δ: Below Additive Effect) | ◯ (◯: Additive Effect) | ◯ (◯: Additive Effect) | ◯ (◯: Additive Effect) |
| CC[C@]1(O)C[C@@H]2CN(CCc3c([nH]c4ccccc34)[C@@](C(=O)OC)(c3cc4c(cc3OC)N(C)[C@H]3[C@@](O)(C(N)=O)[C@H](O)[C@]5(CC)C=CCN6CC[C@]43[C@@H]65)C2)C1 [vindecin] | – | remarkable increases of the numbers of the divided cells | the division prophase and the division metaphase | the additive effect at best; also recorded: no synergistic effects can be obtained in all the 14 combinations and the additive effects can be obtained in only three combinations | Δ (Δ: Below Additive Effect) | Δ (Δ: Below Additive Effect) | Δ (Δ: Below Additive Effect) | ◯ (◯: Additive Effect) | ◯ (◯: Additive Effect) | Δ (Δ: Below Additive Effect) | Δ (Δ: Below Additive Effect) | Δ (Δ: Below Additive Effect) | Δ (Δ: Below Additive Effect) | ◯ (◯: Additive Effect) | Δ (Δ: Below Additive Effect) | Δ (Δ: Below Additive Effect) | Δ (Δ: Below Additive Effect) | Δ (Δ: Below Additive Effect) |
